Data on four molecules can be found in patent publication US6517853B1, “Process for preparing a crystal suspension” (Syngenta Limited, priority 1999, dated 2003).

Data set [1] can be described thus: ΔH/RT value (heat of fusion by differential scanning calorimetry divided by R and melting point in K). It counts as physicochemical. As to the method: The value ΔH/RT is a well understood expression which means the enthalpy (heat) of fusion of a compound (ΔH in kJmol^−1) at the normal melting point of the compound divided by the molar gas constant (R, where R is 8.31451 Jmol^−1K^−1) and the melting point of the compound measured on the absolute or Kelvin scale (in °K). Thus, for example, the ΔH/RT value of octadecane, which has a melting point of 28.2° C. and a heat of fusion of 61.39 kJmol^−1 (see the CRC Handbook of Chemistry and Physics, [1996-1997], 77th Edition. 6-138) is calculated as follows: […]
The heat of fusion of a compound (ΔH) may be measured by differential scanning calorimetry. A suitable method is described by McNaughton, J. L. and Mortimer, C. T. in IRS: Physical Chemistry Series 2, Butterworth, London 1975, Vol 10; subsequently reprinted by Perkin-Elmer Corpn. Norwalk, Conn., USA.
Background: In DSC, transitions show as peaks or steps in heat flow.

Data set [2] in a line: Optical microscope image analysis of droplet / crystal size in aqueous emulsion or dispersion. The format is physicochemical. The note with it: for crystal size immediately after sonication: all four samples (6 and 2 lhr^−1); for droplet size of hot emulsion: before cooling. The text has this:
(§1) A small sample of the cooled sonicated emulsion was transferred using a capillary tube to a microscope slide and was protected with a glass cover slip. The slide was viewed using transmitted light or cross-polarised light (Zeiss microscope) and an image recorded on a calibrated micrograph. The micrograph provides information as to the size (μm), shape and degree of crystallinity of the droplets or crystals.

A short description of data set [3]: Storage of crystalline dispersion, Ostwald ripening (crystal growth) under optical microscope. It counts as physicochemical. The note with it: 1% w/w sonicated dispersion, after one week.
Source text: as §1
The number of spheres/particles in the final dispersion was similar to the number of droplets in the original hot emulsion which indicated nucleation had occurred preferentially in the droplets.

The conditions of data set [4]: CRC Handbook of Chemistry and Physics, 77th Edition; cited from earlier work.
[5] abbreviates: enthalpy of fusion at normal melting point / (R × melting point in K).
[6] abbreviates: 1% w/w aqueous dispersion, cooled to 20° C., continuous sonication 500 w.
Where [7] appears, read: 1% w/w in aqueous Mowiol 18-88, emulsified five minutes by high shear mixer.
Where [8] appears, read: 1% w/w aqueous dispersion, sonicated, higher flow (6 lhr^−1).

Regarding “α-methyl-4-(2-methylpropyl)benzene acetic acid [ibuprofen]”, the ΔH/RT in data set [1] (setting [5]) came out at 9.33. The “crystal size immediately after sonication” value in data set [2] (setting [6]) is < 10 μm. Besides, the “droplet size of hot emulsion” value is listed as ≤ 10 μm in data set [2] (setting [7]) and ≤ 10 μm in data set [2] (20% w/w in aqueous Mowiol 18-88, emulsified five minutes by high shear mixer). Moreover, in data set [2] (2% aqueous dispersion, cooled without sonication, equilibrated for 18 hrs), the “crystal size (twinned crystals) without sonication” value is reported as 100-200 μm. Further, the “crystal size (crystalline spheres) immediately after sonication” value in data set [2] (20% w/w aqueous dispersion, cooled to 20° C., continuous sonication 500 w, all four samples) is < 10 μm.
Molecule `C=C1C2CC[C@@H](C2)C1(C)C` [camphene, (1S)-2,2-dimethyl-3-methylenebicyclo[2.2.1]heptane] came in with a ΔH/RT in data set [1] (setting [5]) of 1.15. In data set [2] (setting [8]), the “size of plates after sonication” value was 30 μm and the “size of small needles after sonication” value turned out to be 2 μm.
`CCCCNC(=O)OCC#CI` [IPBC, 3-iodo-2-propynyl butyl carbamate]: the “Ostwald ripening (crystal growth) of sonicated dispersion” value in data set [3] is “no sign of “Ostwäld” ripening”. In data set [1] (setting [5]), this molecule yielded a ΔH/RT of 9.25. In addition, the “crystal size immediately after sonication” value in data set [2] (setting [6]) is < 10 μm. The “droplet size of hot emulsion” value in data set [2] (setting [7]) is recorded as ≤ 10 μm.
Take `CCCCCCCCCCCCCCCCCC` [octadecane]: the ΔH/RT in data set [1] (calculated from CRC Handbook melting point 28.2° C. and heat of fusion) is 24.5. The heat of fusion in data set [4] is listed as 61.39 kJmol^−1.
